Values of other authors in US20240294453A1, “Deuterated agonists and methods of use” (priority 2018, published 2024).

Test system: subjects with schizophrenia
[1] = 5 mg or 50 mg orally once daily, 24 weeks

Structure (SMILES): O=C(N[C@@H]1C2CCN(CC2)[C@H]1Cc1cccnc1)c1cc2ccccc2o1 [TC-5619]
- scores of CSB, UPSA-B, PANSS, CGI-I, CGI-S, or SGI-Cog vs placebo, P (none favored TC-5619) [1]: > 0.05
- tolerability [1]: generally well tolerated
- SANS score vs placebo, 2-tailed P (5 mg, week 24): 0.159
- benefit in some outcome measures in tobacco users (tobacco users, no concordance by dose, country, gender): Sporadic statistical benefit
- Scale for the Assessment of Negative Symptoms (SANS) composite score, benefit vs placebo (week 24, orally once daily, 5 mg or 50 mg, added to a new-generation antipsychotic): no statistical benefit
